According to patent US20160220569A1, “CDK4/6 Inhibitor Dosage Formulations For The Protection Of Hematopoietic Stem And Progenitor Cells During Chemotherapy” (G1 Therapeutics, Inc., priority 2015, published 2016):
Read-outs that look alike come from different tables or passages of the source.

Assay: 14-day oral gavage toxicokinetic study in rats
Assay type: in vivo
Conditions: male, rat, plasma, po; for concentration at 0.5 h / concentration at 1 h / concentration at 4 h / concentration at 8 h / concentration at 12 h / concentration at 24 h / concentration at […] / concentration at 2 h: rats; for half-life: read-out: t½ (converted)
Description: Plasma was obtained from blood samples collected from rats in a composite sampling scheme, with 3 samples collected per sex, per dose, at each target collection time, as illustrated in Table 21 to Table 25. Samples were collected from the vehicle control group on Day 1 and Day 14 at 3 hour after administration. […] Blood samples were collected in tubes containing K3EDTA as an anticoagulant and placed on ice until processed to plasma via centrifugation. Samples were stored frozen at −80° C. until shipment to the bioanalytical laboratory for analysis.
The following parameters were determined:
Cmax: Maximum observed plasma concentration (ng/mL).
A value of 0 ng/mL was assigned to all values below the lower limit of quantitation (BLQ, <10.0 ng/mL).
AUC(0-inf): Area under the plasma concentration vs. time curve extrapolated from 0 to infinity (ng*h/mL), calculated as AUC(0-t)+AUC(t-inf) where AUC(t-inf) is calculated as last measurable concentration (CLast) divided by ke, where ke is the elimination rate constant determined by linear regression of the last three analytically measured points on the log plasma concentration vs. time curve. The selection criteria of the data points for inclusion in the calculation of ke required that at least three data points representing the terminal phase (after Tmax) were regressed and that R2≧0.850 when rounded.
CL: Clearance (L/h/kg), calculated as the dose divided by AUC(0-t).
Vd: Volume of distribution (L/kg), calculated as dose divided by the product of ke and AUC(0-inf).
Vdss: Steady state volume of distribution (L/kg), calculated as clearance […] mean residence time, where mean residence time is calculated as the area under the first moment curve divided by AUC(0-t).
t½: Elimination half-life (h), calculated as ln(2)/ke, where ke is the elimination rate constant determined by linear regression. Half-life was defined as not determined if regression criteria (specified in AUC(0-inf) above) were not met.
Cmax/Dose: Normalized Cmax, calculated as Cmax divided by total dose.
AUC/Dose: Normalized AUC, calculated as AUC(0-t) divided by total dose.
ii. Statistical Analysis Mean and standard deviation (SD) were calculated in Watson. Values of BLQ were assigned a value of 0 ng/mL for mean calculations. Concentration values and derived TK parameters were reported to three significant figures.

[1] = 5 mg/kg, oral 5 mg/kg, Study Day 1, Male
[2] = 5 mg/kg, oral 5 mg/kg, Study Day 14, Male

CN1CCN(c2ccc(Nc3ncc4cc5n(c4n3)C3(CCCCC3)CNC5=O)nc2)CC1 [Compound 1, 2′-((5-(4-methylpiperazin-1-yl)pyridin-2-yl)amino)-7′,8′-dihydro-6′H-spiro[cyclohexane-1,9′-pyrazino[1′,2′:1,5]pyrrolo[2,3-d]pyrimidin]-6′-one]
concentration at 0.5 h (5 mg/kg, Individual Compound 1 Plasma Concentration, daily oral 5 mg/kg, Day 1, Male, 0.5 h): 225 ng/mL
concentration at 1 h (5 mg/kg, Individual Compound 1 Plasma Concentration, daily oral 5 mg/kg, Day 1, Male, 1 h): 244 ng/mL
concentration at 4 h (5 mg/kg, Individual Compound 1 Plasma Concentration, daily oral 5 mg/kg, Day 1, Male, 4 h): 562 ng/mL
concentration at 8 h (5 mg/kg, Individual Compound 1 Plasma Concentration, daily oral 5 mg/kg, Day 1, Male, 8 h): 235 ng/mL
concentration at 12 h (5 mg/kg, Individual Compound 1 Plasma Concentration, daily oral 5 mg/kg, Day 1, Male, 12 h): 206 ng/mL
concentration at 24 h (5 mg/kg, Individual Compound 1 Plasma Concentration, daily oral 5 mg/kg, Day 1, Male, 24 h): 26.5 ng/mL
concentration at 0.5 h (5 mg/kg, Individual Compound 1 Plasma Concentration, daily oral 5 mg/kg, Day 14, Male, 0.5 h): 205 ng/mL
concentration at 1 h (5 mg/kg, Individual Compound 1 Plasma Concentration, daily oral 5 mg/kg, Day 14, Male, 1 h): 254 ng/mL
concentration at 4 h (5 mg/kg, Individual Compound 1 Plasma Concentration, daily oral 5 mg/kg, Day 14, Male, 4 h): 512 ng/mL
concentration at 12 h (5 mg/kg, Individual Compound 1 Plasma Concentration, daily oral 5 mg/kg, Day 14, Male, 12 h): 169 ng/mL
concentration at 24 h (5 mg/kg, Individual Compound 1 Plasma Concentration, daily oral 5 mg/kg, Day 14, Male, 24 h): 11.1 ng/mL
concentration at […] (5 mg/kg, Individual Compound 1 Plasma Concentration, daily oral 5 mg/kg, Day 14, Male, […]): 26 ng/mL
concentration at 0.5 h (5 mg/kg, Mean Compound 1 Plasma Concentration, oral 5 mg/kg, Day 1, 0.5 h, Male): 237 ng/mL
concentration at 1 h (5 mg/kg, Mean Compound 1 Plasma Concentration, oral 5 mg/kg, Day 1, 1 h, Male): 194 ng/mL
concentration at 2 h (5 mg/kg, Mean Compound 1 Plasma Concentration, oral 5 mg/kg, Day 1, 2 h, Male): 254 ng/mL
concentration at 4 h (5 mg/kg, Mean Compound 1 Plasma Concentration, oral 5 mg/kg, Day 1, 4 h, Male): 408 ng/mL
concentration at 8 h (5 mg/kg, Mean Compound 1 Plasma Concentration, oral 5 mg/kg, Day 1, 8 h, Male): 276 ng/mL
concentration at 12 h (5 mg/kg, Mean Compound 1 Plasma Concentration, oral 5 mg/kg, Day 1, 12 h, Male): 195 ng/mL
concentration at 24 h (5 mg/kg, Mean Compound 1 Plasma Concentration, oral 5 mg/kg, Day 1, 24 h, Male): 25.6 ng/mL
concentration at […] (5 mg/kg, Mean Compound 1 Plasma Concentration, oral 5 mg/kg, Day 1, […], Male): 16 ng/mL
concentration at 0.5 h (5 mg/kg, Mean Compound 1 Plasma Concentration, oral 5 mg/kg, Day 14, 0.5 h, Male): 298 ng/mL
concentration at 1 h (5 mg/kg, Mean Compound 1 Plasma Concentration, oral 5 mg/kg, Day 14, 1 h, Male): 258 ng/mL
concentration at 2 h (5 mg/kg, Mean Compound 1 Plasma Concentration, oral 5 mg/kg, Day 14, 2 h, Male): 436 ng/mL
concentration at 4 h (5 mg/kg, Mean Compound 1 Plasma Concentration, oral 5 mg/kg, Day 14, 4 h, Male): 421 ng/mL
concentration at 8 h (5 mg/kg, Mean Compound 1 Plasma Concentration, oral 5 mg/kg, Day 14, 8 h, Male): 273 ng/mL
concentration at 12 h (5 mg/kg, Mean Compound 1 Plasma Concentration, oral 5 mg/kg, Day 14, 12 h, Male): 198 ng/mL
concentration at 24 h (5 mg/kg, Mean Compound 1 Plasma Concentration, oral 5 mg/kg, Day 14, 24 h, Male): 16.2 ng/mL
concentration at […] (5 mg/kg, Mean Compound 1 Plasma Concentration, oral 5 mg/kg, Day 14, […], Male): 27.2 ng/mL
AUC(0-inf) [1]: 4850 ng·h/mL
AUC(0-t) [1]: 4680 ng·h/mL
Cmax [1]: 408 ng/mL
Tmax [1]: 4 h
half-life [1]: 4.52 h
AUC(0-inf) [2]: 5120 ng·h/mL
AUC(0-t) [2]: 5030 ng·h/mL
Cmax [2]: 436 ng/mL
Tmax [2]: 2 h
half-life [2]: 3.77 h
concentration at 1 h (15 mg/kg, Individual Compound 1 Plasma Concentration, daily oral 15 mg/kg, Day 1, Male, 1 h): 614 ng/mL
concentration at 2 h (15 mg/kg, Individual Compound 1 Plasma Concentration, daily oral 15 mg/kg, Day 1, Male, 2 h): 759 ng/mL
concentration at 4 h (15 mg/kg, Individual Compound 1 Plasma Concentration, daily oral 15 mg/kg, Day 1, Male, 4 h): 1160 ng/mL
concentration at 8 h (15 mg/kg, Individual Compound 1 Plasma Concentration, daily oral 15 mg/kg, Day 1, Male, 8 h): 696 ng/mL
concentration at 12 h (15 mg/kg, Individual Compound 1 Plasma Concentration, daily oral 15 mg/kg, Day 1, Male, 12 h): 451 ng/mL
concentration at […] (15 mg/kg, Individual Compound 1 Plasma Concentration, daily oral 15 mg/kg, Day 1, Male, […]): 49.7 ng/mL
concentration at 0.5 h (15 mg/kg, Individual Compound 1 Plasma Concentration, daily oral 15 mg/kg, Day 14, Male, 0.5 h): 741 ng/mL
concentration at 1 h (15 mg/kg, Individual Compound 1 Plasma Concentration, daily oral 15 mg/kg, Day 14, Male, 1 h): 1020 ng/mL
concentration at 2 h (15 mg/kg, Individual Compound 1 Plasma Concentration, daily oral 15 mg/kg, Day 14, Male, 2 h): 1350 ng/mL
concentration at 4 h (15 mg/kg, Individual Compound 1 Plasma Concentration, daily oral 15 mg/kg, Day 14, Male, 4 h): 1160 ng/mL
concentration at 8 h (15 mg/kg, Individual Compound 1 Plasma Concentration, daily oral 15 mg/kg, Day 14, Male, 8 h): 1190 ng/mL
concentration at 12 h (15 mg/kg, Individual Compound 1 Plasma Concentration, daily oral 15 mg/kg, Day 14, Male, 12 h): 583 ng/mL
concentration at 24 h (15 mg/kg, Individual Compound 1 Plasma Concentration, daily oral 15 mg/kg, Day 14, Male, 24 h): 61.4 ng/mL
concentration at […] (15 mg/kg, Individual Compound 1 Plasma Concentration, daily oral 15 mg/kg, Day 14, Male, […]): 89.9 ng/mL
concentration at 0.5 h (15 mg/kg, Mean Compound 1 Plasma Concentration, oral 15 mg/kg, Day 1, 0.5 h, Male): 620 ng/mL
concentration at 1 h (15 mg/kg, Mean Compound 1 Plasma Concentration, oral 15 mg/kg, Day 1, 1 h, Male): 810 ng/mL
concentration at 2 h (15 mg/kg, Mean Compound 1 Plasma Concentration, oral 15 mg/kg, Day 1, 2 h, Male): 1060 ng/mL
